The results in this text go back to paper PMC12881670, “Investigation into ligand selectivity and bias at the formyl peptide receptor family” (The Journal of Pharmacology and Experimental Therapeutics, 2025).

For assay [1], the target named is T1, Mm_Fpr1 (Mus musculus, UniProt P33766).
T1 construct: expressed in transfected cells
T1 sequence (P33766 1-364): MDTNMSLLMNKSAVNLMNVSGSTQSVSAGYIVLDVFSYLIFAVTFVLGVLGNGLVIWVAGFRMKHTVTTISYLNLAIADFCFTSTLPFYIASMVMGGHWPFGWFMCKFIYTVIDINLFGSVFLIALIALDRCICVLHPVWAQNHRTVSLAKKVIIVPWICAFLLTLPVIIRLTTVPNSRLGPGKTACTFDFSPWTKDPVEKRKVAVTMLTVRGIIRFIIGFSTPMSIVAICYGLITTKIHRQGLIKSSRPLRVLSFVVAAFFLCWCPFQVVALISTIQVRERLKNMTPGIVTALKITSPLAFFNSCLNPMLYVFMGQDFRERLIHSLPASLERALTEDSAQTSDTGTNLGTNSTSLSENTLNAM
Briefly: ERK1/2 phosphorylation by Western blotting. In kind it is cell-based. More on the design: Emax: dose or concentration left out as unconfirmed. As to conditions: for Log EC50 (M) / EC50: log of EC50, phosphorylation of ERK1/2, HEK293 stable cells; for Log EC50 (M) / Emax (%) / EC50: mean, ND = no pERK signal detected; for Emax (%): phospho-ERK, % of 1 μM WKYMVm. Background: Immunoblotting shows a protein as a band on a membrane.

In assay [2] the test system is formyl peptide receptor family (Hs_FPR1, Hs_FPR2, Mm_Fpr1, Mm_Fpr2). Briefly: Summary of main findings: receptor subtype selectivity and ligand bias across all readouts. More on the design: species or system human and mouse. As to conditions: for Bias: summary grade of ligand bias relative to WKYMVm, key not given; for Notes: summary of main findings, in words. The source says:
To determine ligand bias, a reference ligand is required, that is, “balanced” for the pathways tested.[37] […] We then used measurements of the activity ratio (Log (Emax/EC50)) for each receptor, ligand, and pathway in an attempt to observe any ligand bias (Fig. 6).

Assay [3] addresses T1, Mm_Fpr1. In words: BRET receptor-RLuc8 interaction with Venus-mGsi. In kind it is cell-based. Conditions: for Log EC50 (M): log of EC50, HEK293 transient, 10 min; for Log EC50 (M) / Emax (%): mGsi BRET, mean, ND = no interaction detected; for Emax (%): % of response to 1 μM WKYMVm. In outline: (§1)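 Cells were transiently cotransfected with C-terminal RLuc8-tagged FPR and Venus-mGsi or YFP-Arrestin 3 (1:4), then replated at 24 h and cultured a further 24–48 h. After 30 min in HBSS, coelenterazine h (5 μM final) was added 5 min before compound, with a 10 min incubation at 37 °C. Background-subtracted acceptor/donor ratio (N-BRET) was fitted by 3-parameter log(agonist) regression.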

Assay [4] deals with T2, Hs_FPR1 (Homo sapiens, UniProt P21462).
T2 construct: expressed in transfected cells
T2 sequence (P21462 1-350): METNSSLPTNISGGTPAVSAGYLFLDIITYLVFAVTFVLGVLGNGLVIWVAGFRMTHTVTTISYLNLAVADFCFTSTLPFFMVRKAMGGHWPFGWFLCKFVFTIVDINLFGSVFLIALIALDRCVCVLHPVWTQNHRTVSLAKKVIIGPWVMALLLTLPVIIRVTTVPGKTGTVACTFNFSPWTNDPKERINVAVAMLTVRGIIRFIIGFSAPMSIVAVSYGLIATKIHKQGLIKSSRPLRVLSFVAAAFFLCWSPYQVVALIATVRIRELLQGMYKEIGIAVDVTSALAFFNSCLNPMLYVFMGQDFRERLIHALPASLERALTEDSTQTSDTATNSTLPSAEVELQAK
In words: BRET receptor-RLuc8 interaction with Venus-mGsi. It is filed as cell-based. Conditions: for Log EC50 (M): log of EC50, HEK293 transient, 10 min; for Log EC50 (M) / Emax (%): mGsi BRET, mean, ND = no interaction detected; for Emax (%): % of response to 1 μM WKYMVm. In outline: as §1

The target of the next assay is T3, Hs_FPR2 (Homo sapiens, UniProt P25090).
T3 construct: expressed in transfected cells
T3 sequence (P25090 1-351): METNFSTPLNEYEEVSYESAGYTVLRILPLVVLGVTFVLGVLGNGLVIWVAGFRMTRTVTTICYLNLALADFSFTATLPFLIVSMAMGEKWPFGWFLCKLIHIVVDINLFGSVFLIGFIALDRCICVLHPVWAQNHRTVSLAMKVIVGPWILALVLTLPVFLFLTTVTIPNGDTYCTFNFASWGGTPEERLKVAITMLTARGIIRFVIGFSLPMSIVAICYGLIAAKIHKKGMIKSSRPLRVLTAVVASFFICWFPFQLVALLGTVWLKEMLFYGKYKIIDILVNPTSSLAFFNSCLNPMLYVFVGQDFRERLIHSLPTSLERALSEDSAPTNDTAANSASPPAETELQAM
In words: Internalization of FLAG-tagged receptors by flow cytometry. In kind it is cell-based. More on the design: Emax: dose or concentration left out as unconfirmed. As to conditions: for Emax (%), internalization, Mean: % of internalization to WKYMVm (1 mM in legend, 1 μM in text), Hs_FPR2, 30 minutes; for Emax (%), internalization, Mean / Log EC50 (M), internalization, Mean: ND denotes no internalization measured; for agonist-induced internalization (words): Hs_FPR2, 30 min, relative to 1 μM WKYMVm; for Log EC50 (M), internalization, Mean: HEK293 stably expressing FLAG-Hs_FPR2, ligand 30 minutes. The method, then:
(§2) Internalization of FPRs was measured by flow cytometry.[30] Briefly, cells were incubated with Alexa Fluor 657 conjugated M1 antiflag antibody (Sigma-Aldrich Cat# F3040, RRID:AB_439712) for 30 minutes at 37 °C to label surface receptors. Cells were then incubated with the indicated concentration of ligand before washing in PBS/0.04% EDTA to remove any remaining surface antibody. Remaining fluorescence was then measured using flow cytometry on either a BD FACScalibur or Attune, recording 5000 gated events. […] As a control, some samples were left untreated, and “strip only” was measured as a readout of constitutive endocytosis, and this value was subtracted from the data.
(§3) All data were analyzed using GraphPad Prism using the nonlinear regression log(agonist) versus response (3 parameters) function for all assays, except binding, which was analyzed using the One site-FitlogIC50 function. Bias calculations were carried out following IUPHAR guidelines as described,[27]^,[37] and data were presented as the Δ Activity ratio (Log[EmaxB/EC50B])-(Log[EmaxA/EC50A]).
A general note: Flow cytometry measures light scatter and fluorescence of single cells or particles in a stream.

Assay [5] concerns the target T2, Hs_FPR1. Described as above. In kind it is cell-based. More on the design: Emax: dose or concentration left out as unconfirmed. As to conditions: for agonist-induced internalization (words): Hs_FPR1, 30 min, relative to 1 μM WKYMVm; for Emax: read-out: Emax (%), internalization, Mean. As for the experimental part: as §2, §3

“Also recorded” adds a separate entry of the source. Where two headings read alike, the source gives them in different places. Where a SMILES comes first, the peptide text is derived from it. Where no end group is shown, it is not given here. The star is where a group is joined. For = O=C*

In the case of `Cc1cccc(-c2oc(C)nc2C(=O)Nc2cnn(Cc3nc(C(C)(F)F)co3)n2)c1` [ACT-389949], on Mm_Fpr1 [1], the “Log EC50 (M)” value is recorded as −6.383 M and the “Emax (%)” value was found to be 99.504%. In assay [2], the Bias entry is “No”. In addition, on Mm_Fpr1 [3], the “Log EC50 (M)” value was −5.74 M and the “Emax (%)” value came to 49.76%. At Hs_FPR1 [4], the “Log EC50 (M)” value is −6.47 M and the “Emax (%)” value is recorded as 60.56%. Besides, on Hs_FPR2, the “Emax (%), internalization, Mean” value was found to be 95.31%; the “agonist-induced internalization (words)” value was “full agonist”; the “Log EC50 (M), internalization, Mean” value is reported as −7.975 M. Also, on Hs_FPR1 [5], the “agonist-induced internalization (words)” value is “only at 10 μM”.
A word on the Emax: it is the maximal effect, on the per cent scale that the assay sets. Broadly, the EC50 is the concentration at which the effect is half-maximal. `COc1cc(F)c([C@@H]2CNC(=O)[C@H]2NC(=O)Nc2ccccc2)c(F)c1` [BMS-986235]: the Emax came to 114% on Mm_Fpr1 [1], 21.7% at Mm_Fpr1 [3], 7.4% at Hs_FPR1 [4] and 112% at Hs_FPR2. In addition, the EC50 is 982 nM on Mm_Fpr1 [1]; 1410 nM on Mm_Fpr1 [3]; 2240 nM at Hs_FPR1 [4]; 9.1e-07 M on Hs_FPR2 (read-out: Log EC50 (M), internalization, Mean (converted)). Also, the Bias result in assay [2] is “+ (Hs_FPR2)”. Further, the Notes result in assay [2] was “Bias against internalization”. Further, the “agonist-induced internalization (words)” value at Hs_FPR2 is “robust internalization”; on Hs_FPR1 [5], “failed to show appreciable internalization; also recorded: unable to induce any measurable internalization”.
On to `CSCC[C@H](NC(=O)[C@H](Cc1ccc(O)cc1)NC(=O)[C@H](CCCCN)NC(=O)[C@@H](N)Cc1c[nH]c2ccccc12)C(=O)N[C@H](C(=O)N[C@H](CCSC)C(N)=O)C(C)C` [WKYMVm], for which the Emax was determined as 102% on Mm_Fpr1 [1]; 109% on Mm_Fpr1 [3]; 112% at Hs_FPR1 [4]; 97.5% on Hs_FPR2; 106% on Hs_FPR1 [5].
For `CCCCOc1ccc(C(=O)NN2C(=O)c3ccccc3NC2c2ccc(OC)cc2)cc1` (stereo not drawn) [QuinC1], on Mm_Fpr1 [1], the “Log EC50 (M)” value is recorded as −6.945 M and the “Emax (%)” value came to 150.3%. In addition, in assay [2], the Bias result is listed as “No” and the Notes result is given as “Partial/weak only”. At Mm_Fpr1 [3], the “Log EC50 (M)” value is −7.49 M and the “Emax (%)” value is on record as 30.89%. At Hs_FPR1 [4], the “Log EC50 (M)” value is reported as −5.34 M and the “Emax (%)” value was 17.60%. Also, on Hs_FPR2, the “Emax (%), internalization, Mean” value amounted to 81.29%; the “agonist-induced internalization (words)” value is listed as “partial agonists”; the “Log EC50 (M), internalization, Mean” value is on record as −5.809 M. The “agonist-induced internalization (words)” value on Hs_FPR1 [5] is reported as “partial agonists”.
For the molecule `CSCC[C@H](NC=O)C(=O)N[C@@H](CC(C)C)C(=O)N[C@@H](Cc1ccccc1)C(=O)N[C@@H](CCCCN)C(=O)O` [fMLFK, fMet-Leu-Phe-Lys] (For-MLFK-OH), the Emax worked out at 140% at Mm_Fpr1 [1]; 62.9% at Mm_Fpr1 [3]; 104% at Hs_FPR1 [4]; 99.9% on Hs_FPR2; 79.3% at Hs_FPR1 [5]. Besides, the EC50 was 851 nM on Mm_Fpr1 [1]; 9550 nM on Mm_Fpr1 [3]; 85.1 nM at Hs_FPR1 [4]; 3.34e-05 M on Hs_FPR2; 16.2 nM at Hs_FPR1 [5].
LESIFRSLLFRVM [MMK1]: in assay [2], the Bias entry is “No” and the Notes entry was “Only activity at Hs_FPR2”. In addition, on Hs_FPR2, the Emax is 62.9%; the “agonist-induced internalization (words)” value is “partial agonism”; the “Log EC50 (M), internalization, Mean” value was −7.216 M. Further, the “agonist-induced internalization (words)” value on Hs_FPR1 [5] is “failed to show appreciable internalization”. The “agonist-induced internalization (words)” value at Hs_FPR1 [5] (listed as MMK-1) is “unable to induce internalization”.
